Measurements published in patent publication US10251937B2, “Retro-inverso analogs of spadin display increased antidepressant effects” (MEDINCELL, priority 2014, dated 2019).
Square brackets hold non-standard residues; d marks the D form. Peptide text beside a SMILES is read from it.

Target: T1, TREK-1 channels (Homo sapiens, UniProt O95069)
T1 construct: expressed in transfected cells
T1 sequence (O95069 1-426): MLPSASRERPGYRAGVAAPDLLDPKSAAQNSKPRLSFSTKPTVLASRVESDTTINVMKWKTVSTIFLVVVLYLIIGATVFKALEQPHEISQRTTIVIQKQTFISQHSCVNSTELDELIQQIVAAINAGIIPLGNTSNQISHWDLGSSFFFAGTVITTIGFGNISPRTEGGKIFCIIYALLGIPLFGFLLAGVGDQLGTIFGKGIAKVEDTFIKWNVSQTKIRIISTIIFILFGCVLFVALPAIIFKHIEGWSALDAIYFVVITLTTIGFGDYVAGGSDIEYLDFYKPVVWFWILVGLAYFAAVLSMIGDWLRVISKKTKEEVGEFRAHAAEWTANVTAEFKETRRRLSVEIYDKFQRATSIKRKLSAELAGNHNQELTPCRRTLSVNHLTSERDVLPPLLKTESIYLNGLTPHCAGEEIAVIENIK
Experiment: TREK-1 current inhibition, whole cell patch clamp on h-TREK-1/HEK cell line
Format: cell-based
Protocol: The human-TREK-1/HEK293 cell line (h-TREK-1/HEK) (Moha ou Maati, H. et al. (2011). PloS one, 6 (10), e25602) and HEK-IKS cell line (Ducroq, J. et al, (2010) Br J Pharmacol, 159(1):93-101) were grown in the presence of 0.5 mg/mL G418 in Dulbecco's modified Eagle's medium supplemented with 10% (v/v) heat inactivated fetal bovine serum containing 1% (v/v) penicillin/streptomycin in an atmosphere of 95% air/5% CO2.
All electrophysiological experiments were performed on h-TREK-1/HEK cells seeded at a density of 20 000 cells/35-mm dish after 2-6 days of culture. All electrophysiological recordings were performed in whole cell configuration of the patch clamp technique. Each current was evaluated by using a RK 400 patch clamp amplifier (Axon Instrument, USA), low-pass filtered at 3 kHz and digitized at 10 kHz using a 12-bit analog-to-digital converter digidata (1322 series, Axon Instrument, USA). All current amplitudes are expressed in current densities. Results were expressed as mean±standard error of the mean (SEM). […] The bath solution contained 150 mM NaCl, 5 mM KCl, 3 mM MgCl2, 1 mM CaCl2 and 10 mM HEPES adjusted to pH 7.4 with NaOH. The pipette solution contained 155 mM KCl, 3 mM MgCl2, 5 mM EGTA and 10 mM HEPES adjusted to pH 7.2 with KOH. TREK-1 currents were evaluated in the presence of a cocktail of potassium channel inhibitors (K+ blockers: 3 mM 4-aminopyridine (4-AP), 10 mM tetraethylammonium (TEA), 10 μM glibenclamide, 100 nM apamin and 50 nM charybdotoxin). All experiments were performed at room temperature (21-22° c.). Stimulation protocols and data acquisition were carried out using a microcomputer (Dell Pentium) with a commercial software and hardware (pClamp 8.2). Currents were recorded by voltage clamp steps to membrane potentials of −100 to +60 mV in 20 mV steps applied from a holding potential of −80 mV. Duration of depolarization pulses were […], and the pulse cycling rate was 5 sec. TREK-1 current amplitudes were evaluated at the end of the stimulation pulses. Cells were continuously superfused with a microperfusion system. Inhibitory effects of spadin and analogs were performed on arachidonic acid pre-activated TREK-1 currents. Spadin and analogs were tested at the unique dose of 100 nM. For both Analog 3 (SEQ ID:4) and Analog 8 (SEQ ID:9) concentration-dependant inhibitions were performed by applying concentrations ranging between 1 nM to 1 μM. IKS currents were activated by voltage clamp steps of membrane potentials from −100 to +100 mV in 20 mV steps applied from a holding potential of −80 mV. Tail currents were generated by repolarization to −40 mV. Duration of both depolarization and repolarization pulses were 2.4 s, and the pulse cycling rate was 10 s. IKR currents were activated by voltage clamp steps of membrane potentials from −100 to +100 mV in 10 mV steps applied from a holding potential of […] and tail currents were generated by a repolarization to […]. Duration of both depolarization and repolarization pulses were 1 s, and the pulse cycling rate was 5 s. The amplitudes of IKS and IKR currents were calculated at both the end of the first pulse and the peak of the tail pulse.
Neuropharmacology 62, 278, (2012)) was used as reference.

## CC[C@@H](C)[C@@H](NC(=O)CNC(=O)[C@H](NC(=O)[C@@H](CO)NC(=O)[C@@H](Cc1c[nH]c2ccccc12)NC(=O)CNC(=O)[C@@H](CC(C)C)NC(=O)[C@@H](CCCNC(=N)N)NC(C)=O)C(C)C)C(=O)N1CCC[C@@H]1C(=O)NCC(=O)N[C@H](CO)C(=O)N[C@H](Cc1c[nH]c2ccccc12)C(=O)N[C@H](CCCNC(=N)N)C(=O)N1CCC[C@@H]1C(=O)N[C@H](CC(C)C)C(=O)N1CCC[C@@H]1C(=O)N[C@H](C)C(N)=O [Analog 3, Ac-rlGwsvGipGswrplpa-NH2] (Ac-[dR][dL]G[dW][dS][dV]G[dI][dP]G[dS][dW][dR][dP][dL][dP][dA]-NH2)
100 nM, n=10 to 12
  blockade effect on TREK-1 channel activity compared to spadin: increased blockade effect
Compared to spadin IC50
  higher affinity for TREK-1 channels than spadin: 6 fold
